Measured values reported in patent US20040038884A1, “Treatment of tinitus” (priority 2003, published 2004).
Where no end group is shown, it is not given here.

Experiments:
[1] = system: alpha9/alpha10 heteromeric acetylcholine receptor; experiment: Block of the acetylcholine receptor of the inner ear (stated finding, no method given)
[2] = system: outer hair cells (OHCs); experiment: Whole-cell patch-clamp recordings of inhibitory postsynaptic currents on outer hair cells; type: cell-based, Wistar rats; details: apamine 10 nM; OHCs held at −64 mV, high extracellular K+

| block of the acetylcholine receptor [1] | Compound | inhibition of postsynaptic currents (IPSCs) [2] |
| --- | --- | --- |
| blocked efficiently | CC12CC3CC(C)(C1)CC(N)(C3)C2 [memantine, 3.5-dimethyl-1-adamantan-amine] |  |
|  | apamine (CNCKAPETALCARRCQQH; not fully specified (C-terminus, bridges); cysteine pairing not given here; UniProt P01500 28-45, looked up) | complete inhibition |
